PMC3368886, “ATPase Cycle and DNA Unwinding Kinetics of RecG Helicase” (PLoS ONE, 2012)

Experiments:
RecG [1] = target: T1, RecG (Thermotoga maritima, UniProt Q9WY48); assay: ATP hydrolysis during unwinding (phosphate biosensor, heparin trap); assay type: biochemical; settings: 200 nM 4-strand complementary junction, 10 nM RecG, 200 µM ATP
T1 construct: made in house
T1 sequence (Q9WY48 1-780): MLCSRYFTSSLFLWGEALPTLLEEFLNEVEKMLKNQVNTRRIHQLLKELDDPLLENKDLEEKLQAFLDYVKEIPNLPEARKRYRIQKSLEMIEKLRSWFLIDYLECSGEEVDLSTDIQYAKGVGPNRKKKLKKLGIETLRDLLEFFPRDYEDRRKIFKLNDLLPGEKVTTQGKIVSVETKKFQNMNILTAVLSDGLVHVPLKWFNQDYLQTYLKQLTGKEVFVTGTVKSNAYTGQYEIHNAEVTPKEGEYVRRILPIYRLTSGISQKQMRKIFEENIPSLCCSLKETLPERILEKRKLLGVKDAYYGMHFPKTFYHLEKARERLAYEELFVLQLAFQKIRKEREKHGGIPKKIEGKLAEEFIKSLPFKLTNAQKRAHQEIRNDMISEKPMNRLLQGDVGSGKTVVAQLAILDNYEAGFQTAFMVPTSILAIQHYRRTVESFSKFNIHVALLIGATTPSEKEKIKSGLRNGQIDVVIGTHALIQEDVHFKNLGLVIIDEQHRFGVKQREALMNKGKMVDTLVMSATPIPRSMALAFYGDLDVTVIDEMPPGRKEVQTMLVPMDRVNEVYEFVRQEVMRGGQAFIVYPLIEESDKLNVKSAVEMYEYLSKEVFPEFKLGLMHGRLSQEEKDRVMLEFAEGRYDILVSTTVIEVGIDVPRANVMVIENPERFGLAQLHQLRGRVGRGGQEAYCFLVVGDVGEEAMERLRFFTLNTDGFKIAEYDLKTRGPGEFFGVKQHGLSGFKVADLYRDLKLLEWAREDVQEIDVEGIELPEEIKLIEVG
Protocol: The rate of ATP hydrolysis and total ATP usage during unwinding were measured using the phosphate biosensor (Figure 8), following rapid mixing of ATP with the RecG⋅DNA complex. […] Heparin is a potent inhibitor of many helicases, mimicking the DNA substrate and binding tightly to the enzyme, once the latter dissociates from the DNA, and so prevents rebinding of the helicase to fresh DNA substrates. The initial, rapid phase, which represents unwinding of the first DNA junction, was unaffected by the presence of heparin. […] RecG will continue to hydrolyze ATP while bound to the DNA substrate.
Figure 8 ATP hydrolysis during unwinding 4-strand complementary junctions. Junctions of varying arm lengths (shown in b.p.) were used to measure the rate of ATP hydrolysis during unwinding. RecG was pre-incubated with junction and the reactions were initiated by rapid mixing with ATP and heparin. […]
The ATPase measurement was repeated with different lengths of lagging and leading strands, as used in the unwinding measurements, in the presence of heparin (Figure 8 main panel). […] The ATPase rate measured here is similar to the steady-state and hydrolysis rate constants measured in the above sections, supporting the idea that the ATP hydrolysis reaction is not greatly affected by the type of junction.

RecG [2] = target: T1, RecG; assay: mantATP cleavage (acid quench) and Pi release in the absence of DNA; assay type: biochemical
Protocol: As done for the RecG⋅DNA complex, measurements were also taken with an excess of RecG over mantATP (Figure S3B). A large, relative rapid, increase in mant fluorescence was observed followed by a small gradual increase. The rate constants are consistent with those at excess mantATP. Under the same conditions of excess RecG over mantATP, mantATP cleavage (acid quench) and Pi release were measured (Figure S3B). […] The cleavage step rate constant was 4×10^−4 s^−1, ∼10^3 slower than in the presence of DNA. […] The cleavage step was greatly stimulated by DNA.
Supplementary file pone.0038270.s003.tif: Figure S3 Kinetic measurements in the absence of DNA. (A) Association kinetics with mantATP. Dependence of the observed rate constants on mantATP concentration from mixing 0.5 µM RecG with excess mantATP under the same conditions as Figure 3. Points shown are typically an average of three individual measurements. The best linear fit gives a slope of 0.4 (±0.15) µM^−1 s^−1 and intercept 1.7 (±0.6) s^−1. (B) Fluorescence trace upon mixing 2.5 µM RecG with 0.5 µM mantATP under the conditions of Figure 4. […] Note that as the fluorescence slowly increases beyond the time course, it was not possible to calibrate the ordinate. […] Pi release kinetics (continuous line) were measured for the same mixture containing 10 µM MDCC-PBP. […]

| SMILES | rate of ATP hydrolysis during unwinding phase (RecG [1]) [s⁻¹] | cleavage step rate constant (RecG [2]; absence of DNA, excess RecG over mantATP) [s⁻¹] | cleavage slower than in the presence of DNA (RecG [2]; absence vs presence of DNA) |
| --- | --- | --- | --- |
| Nc1ncnc2c1ncn2[C@@H]1O[C@H](COP(=O)(O)OP(=O)(O)OP(=O)(O)O)[C@@H](O)[C@H]1O [ATP] | 5.8 |  |  |
| CNc1ccccc1C(=O)O[C@H]1[C@@H](O)[C@H](n2cnc3c(N)ncnc32)O[C@@H]1COP(=O)(O)OP(=O)(O)OP(=O)(O)O [mantATP, 2′(3′)-O-(N-methylanthraniloyl)ATP] |  | 0.0004 | ~10^3 |
